Holding throughout (assay): NCI tumour cell line growth inhibition, 48 h
The subject of test [1] is DU-145.
Test [2] concerns MDA-N.
In test [3] the test system is MDA-MB-231.
The test system of test [4] is T47D.
For test [5], the system named is DMS-114.
Test [6] has as its system XF498.
For test [7], the system named is DLD-1.
Test [8] has as its system LXFL 529.
Test [9] concerns RXF 631.

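These data come from cells grown in 96-well plates and exposed to compound for 48 hours at five concentrations. Here, GI50 denotes the concentration required for 50% inhibition of growth.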 Activity calls are given as the source filed them. No stated cut-off is given here; in the data, active = GI50 up to about 1.1 µM and inactive = higher. Some results are limits rather than exact numbers.

For `COc1ccc2nc3n(c2c1)C(=O)c1ccccc1-3`, the GI50 in test [1] and in [2] was > 100 µM (inactive) throughout.

Take `O=C(O)c1cc(-c2ccc3cc4c(cc3c2)OCO4)nc2ccccc12`: the GI50 is 31.4 µM (inactive) in test [3], 63.4 µM (inactive) in test [1], 54.8 µM (inactive) in test [4] and 36 µM (inactive) in test [2].

Turning to `CCC1(OC(=O)CN)C(=O)OCc2c1cc1n(c2=O)Cc2cc3ccccc3nc2-1` (stereo not given), the GI50 is 0.00989 µM (active) in test [5]; 0.38 µM (active) in test [3]; 0.147 µM (active) in test [6]; 0.01 µM (active) in test [1]; 0.25 µM (active) in [7]; 0.012 µM (active) in test [4]. Moreover, in test [8], the GI50 was 0.546 µM (active).

Regarding `CCCS(=O)(=O)O`, the GI50 in test [3], in test [1] and in [4] was > 100 µM (inactive) throughout.

Turning to `CCN(CC)C(=O)c1cc(OC(C)C)ccc1-c1c(C)cc(OC(C)C)c(OC)c1OC`, the GI50 is 36.5 µM (inactive) in test [5], 25.8 µM (inactive) in test [6] and 40.3 µM (inactive) in test [7].

Regarding `O=C1CN2C(Cl)(Cl)C2(c2ccccc2)c2cc(Cl)ccc2N1CC1CC1` (stereo not given), the results for the GI50 in test [5], in test [7] and in [8] were 36.2 µM (inactive), 16.9 µM (inactive) and 42.4 µM (inactive), respectively.

Turning to `COc1ccc(C2N(NC(=O)c3ccncc3)C(=O)CS2(=O)=O)cc1F` (stereo not given), the GI50 in test [5], in test [6], in [7], in test [8] and in test [9] was > 100 µM (inactive) each time.

`O=c1ccc2cc3ccc4cccc5ccc(c2o1)c3c45`: the GI50 in test [5] was 33 µM (inactive); in test [6] it was 12 µM (inactive); in test [7], > 100 µM (inactive); in [8] it was 45 µM (inactive); in [9] it was 80 µM (inactive).

`COc1cc(C2C(=O)C(Cl)N2Nc2nc(C)cc(O)n2)cc(OC)c1OC` (stereo not given): the GI50 in test [5] is 8.67 µM (inactive); in test [8] it was 12.9 µM (inactive).

Turning to `CC(=O)N/C(=C\c1ccc(Cc2nc3c([nH]2)C(=O)c2ccccc2C3=O)cc1)c1nc2c([nH]1)C(=O)c1ccccc1C2=O`, the GI50 in test [5], in [7] and in test [8] was > 100 µM (inactive) throughout.

`COc1ccccc1C(=O)NCC1CCCN2CCCCC12` (stereo not given): the GI50 in test [3], in test [1], in test [4] and in test [2] was > 100 µM (inactive) in each case.

For the molecule `O=C(NC1C/C(=N/O)c2c(Br)sc(Br)c21)C(F)(F)F` (stereo not given), the GI50 is 13.1 µM (inactive) in test [3], 27.5 µM (inactive) in test [1], 20.7 µM (inactive) in test [4] and 32.3 µM (inactive) in test [2].

Turning to `C=CCNC(=O)N(CCC)CCCCC(NC(C)=O)C(=O)NCc1ccccc1` (stereo not given), the GI50 in test [5], in test [6] and in test [8] was > 100 µM (inactive) each time.

For the molecule `CC12CCCCC1C(=O)C2(Cl)Cl` (stereo not given), the GI50 in test [6] is 2.07 µM (inactive); in [7], 1.97 µM (inactive); in test [8], 2.28 µM (inactive); in test [9], 1.92 µM (inactive).

`COc1ccc(C(CC(=O)c2ccc(O)cc2)C(C(=O)c2ccc(O)cc2)C(c2ccc(OC)cc2)C2C(=O)NC(=S)NC2=O)cc1` (stereo not given): the GI50 in [3] was 20.7 µM (inactive); in test [1] it was 14.9 µM (inactive); in test [2], 18.8 µM (inactive).

As for `CC(C)(C)C(=O)OCC1C(=O)OCC1C(=O)N1Cc2cc3ccccc3nc2C1` (stereo not given), the GI50 was 4.81 µM (inactive) in [5]; 4.62 µM (inactive) in test [3]; 16.4 µM (inactive) in test [1]; 1.55 µM (inactive) in [7]; 2.38 µM (inactive) in test [4]; 1.47 µM (inactive) in [8]. Moreover, the GI50 in [2] is 3.83 µM (inactive).

Regarding `CC1(C)N=C(Oc2ccccc2)n2nccc2N1`, the GI50 in test [5], in test [6], in [7] and in test [8] was > 100 µM (inactive) in each case.

For the molecule `Cc1nnc(Nc2ccc(Cl)cc2)o1`, the GI50 in test [3], in [1], in test [4] and in test [2] was > 10 µM (inactive) each time.

For `COC1OC(CS(=O)(=O)O)C(O)C(O)C1O` (stereo not given), the GI50 in test [1], in [4] and in test [2] was > 100 µM (inactive) each time.

For `C/C(=C1\N=C(c2ccccc2)OC1=O)c1ccccc1`, the GI50 in test [1] and in [4] was > 100 µM (inactive) each time.

As for `Cc1ccc(CCC(=O)C(=O)O)s1`, the GI50 in test [5], in test [6], in [8] and in [9] was > 100 µM (inactive) each time.

`NC1CCCCC1`: the GI50 was > 56.2 µM (inactive) in [5] and 200 µM (inactive) in test [7].

As for `CC(=O)[C@H]1CCC2[C@@H]3CC=C4C(O)C(OS(=O)(=O)O)CC[C@]4(C)C3CC[C@@]21C` (stereo not given in full), the GI50 in test [5] and in test [7] was > 100 µM (inactive) throughout.

Consider `O=C(N/N=C/C=C/c1ccccc1)[C@H](O)[C@@H](O)C(=O)N/N=C/C=C/c1ccccc1`, for which the GI50 in test [5], in test [7] and in [8] was > 100 µM (inactive) each time.

Turning to `CC1C(=O)N(c2ccccc2)NC12CCCc1ccccc12` (stereo not given), the GI50 in [3], in test [1], in test [4] and in [2] was > 100 µM (inactive) in each case.

For the molecule `C=CC(=O)NC(O)(C(=O)OCC)C(F)(F)F` (stereo not given), the GI50 in test [3], in test [1], in test [4] and in test [2] was > 100 µM (inactive) each time.

Consider `O=C1CC(CC(OCc2ccccc2)C(COCc2ccccc2)OCc2ccccc2)CC(=O)N1` (stereo not given), for which the GI50 in test [3] was 50.2 µM (inactive); in [1] it was 69.3 µM (inactive); in test [4], 27.9 µM (inactive); in test [2], 30.1 µM (inactive).

With `CN(C)c1ccc(/C=C2/SC(=S)NC2=O)cc1`, the GI50 in test [3] is 90.8 µM (inactive); in test [1], > 100 µM (inactive); in test [4], > 100 µM (inactive); in test [2], > 100 µM (inactive).

`Cc1[nH]c2ncn(/N=C/c3ccccc3O)c(=N)c2c1Cc1ccccc1`: the GI50 is 24.9 µM (inactive) in test [3], > 100 µM (inactive) in test [1], > 100 µM (inactive) in test [4] and 26 µM (inactive) in test [2].

Consider `O=C1CCC(c2ccccc2)=NN1c1nsc2ccccc12`, for which the GI50 in test [5] is 62.7 µM (inactive); in [8], > 100 µM (inactive).

With `CC(SC(=S)N1CCOCC1)C(=O)Nc1nnc(-c2ccc(Cl)cc2)o1` (stereo not given), the GI50 in test [3] was 51.5 µM (inactive); in [1], 79.6 µM (inactive); in test [4], 51.3 µM (inactive).

For the molecule `Cc1cc2c(ccc[n+]2[O-])[n+]([O-])c1`, the GI50 in test [5], in test [6], in test [7] and in [8] was > 100 µM (inactive) throughout.

`CCCCC1(N=[N+]=[N-])C(=O)c2cccc3c2N(CCC3)C1=O` (stereo not given): the GI50 in [3], in test [1], in [4] and in [2] was > 100 µM (inactive) throughout.

For the molecule `Nc1cc2c(nc3c4ccccc4c(N)cc3[n+]2-c2cccc3ccccc23)c2ccccc12.Nc1cc2c(nc3c4ccccc4ccc3[n+]2-c2cccc3ccccc23)c2ccccc12`, the GI50 in test [3] is 0.276 µM (active); in test [1] it was 3.03 µM (inactive); in [4] it was 0.687 µM (active); in test [2], 1.87 µM (inactive).

Take `COc1cc([C@@H]2c3cc4c(cc3[C@@H](c3c(O)cc(O)c5c3O[C@H](c3ccc(O)c(O)c3)[C@@H](O)C5)[C@H]3COC(=O)[C@H]23)OCO4)cc(OC)c1O`: the GI50 in test [3] is > 100 µM (inactive); in test [1], > 100 µM (inactive); in test [4] it was > 100 µM (inactive); in test [2] it was 34.7 µM (inactive).

As to `COc1cc2ccc(CC(N)=O)cc2cc1OC`, the GI50 in [5], in [6], in test [8] and in test [9] was > 100 µM (inactive) each time.

In the case of `CC1[C@@H]2CC=C3C4CCC5Cc6nc7c(nc6C[C@@]5(C)C4CC(=O)[C@]32CO[C@@]1(O)C(O)CC(C)(C)O)CC1CCC2C3=C[C@H]4O[C@@]5(O[C@@](C)(CO)C[C@@H]5O)C(C)[C@@]4(O)[C@]3(C)[C@@H](O)CC2[C@]1(C)C7` (stereo not given in full), the GI50 in [5] is 0.000513 µM (active); in test [6], 0.00242 µM (active); in test [7], 0.111 µM (active).

For `Clc1ccc(-c2nnc(-c3nsc4ccccc34)o2)cc1`, the GI50 is 65.6 µM (inactive) in test [5] and 71 µM (inactive) in test [8].

For `O=C(O)c1ccc(NS(=O)(=O)Cc2ccccc2)cc1`, the GI50 in test [3], in test [1], in test [4] and in [2] was > 100 µM (inactive) each time.

The values above are taken from ChEMBL document CHEMBL1201862, “PubChem BioAssay data set” (2004).
